Like-named read-outs stand apart in the source and are kept apart here.
Assays:
LDLR [1] = experiment: In-Cell Western (ICW), LDLR localized on cellular membranes of HepG2 cells; assay type: cell-based, human; details: pravastatin 1.0 µM, 24 h, versus control, p < 0.0001, mean ± S.D., three experiments in triplicate
Protocol: For the experiments, a total of 3 × 10^4 HepG2 cells/well were seeded in 96-well plates. The following day, the cells were washed with PBS and then starved overnight (O/N) in DMEM without FBS nor antibiotics.
HMGCoAR were provided in the HMGCoAR Assay Kit (Sigma Aldrich SRL, Milan, Italy). The experiments were carried out following the manufacturer instructions at 37 °C. In particular, each reaction (200 µL) was prepared adding the reagents in the following order: 1 X assay buffer, a 10–1000 µM doses of H3 or vehicle (C), the NADPH (4 µL), the substrate solution (12 µL), and finally the HMGCoAR (catalytic domain) (2 µL). Subsequently, the samples were mixed and the absorbance at 340 nm read by the microplate reader Synergy H1
In-Cell Western (ICW) Assay
For the experiments, a total of 3 X 10 4 HepG2 cells/well were seeded in 96-well plates. The following day, cells were washed with PBS and then starved overnight (O/N) in DMEM without FBS and antibiotics.
Subsequently, they were fixed in 4% paraformaldehyde for 20 min at room temperature (RT). […] The reaction was stopped with 2 M H2SO4 and then the absorbance at 450 nm was measured using the microplate reader Synergy H1 (Winooski, VT, USA). After the read, cells were stained by adding 1 X Janus Green stain, incubating for 5 min at RT. […]

AMPK [2] = experiment: Western blot, p-AMPK (threonine 172) in HepG2 cells; assay type: cell-based, human; details: pravastatin 1.0 µM, 24 h, versus control; p < 0.05; mean ± S.D., three independent experiments in duplicate
Protocol: (§1) Immunoblotting experiments were performed using an optimized protocol. Details are available in the Supplementary Materials. […]
(§2) 2.7. Western Blot Analysis
(§3) Immunoblotting experiments were performed using optimized protocol […]
(§4) µM of H3 for 24 h. After each treatment, the supernatants were collected and stored at -20 °C; cells were scraped in 40 µL ice-cold lysis buffer (RIPA buffer + inhibitor cocktail + 1:100 PMSF + 1:100 Na-orthovanadate + 1:1000 β-mercaptoethanol) and transferred in ice-cold microcentrifuge tubes. After centrifugation at 13,300 g for 15 min at 4 °C, the supernatants were recovered and transferred into new ice-cold tubes. […]
(§5) Cocktail) on ice for 20 min and then centrifuged 12000 rpm for 10 min at 4°C and the supernatant was collected (nucleus isolate). Total proteins were quantified […]
(§6) Sodium Dodecyl Sulfate-Polyacrylamide (SDS-PAGE) gel at 130 V for 45 min.
(§7) Subsequently, the gel was pre-equilibrated in H2O for 5 min at room temperature (RT) and transferred to a nitrocellulose membrane (Mini nitrocellulose Transfer Packs,) using a Trans-Blot Turbo at 1.3 A, 25 V for 7 min. Target proteins, on milk or BSA blocked membrane, were detected by primary antibodies as follows: anti-SREBP-2, anti-LDLR, anti-HMGCoAR, anti-PCSK9, anti HNF1-α, anti-p-HMGCoAR, anti-p-AMPK and anti-β-actin. […]

HepG2 cells = experiment: Fluorescent LDL uptake by HepG2 cells; assay type: cell-based, human; details: pravastatin 1.0 µM, 24 h, then LDL-DyLight 550 for 2 h at 37 °C, fluorescence, versus control; p < 0.0001; mean ± S.D., three experiments in triplicate
Protocol: treatment, the culture medium was replaced with 50 µL/well LDL-DyLight™ 550 working solution (Cayman Chemical Company, Ann Arbor, MI, USA) prepared in DMEM without FBS and antibiotics. The cells were additionally incubated for 2 h at 37 °C and then the culture medium was aspirated and replaced with PBS (100 µL/well). The degree of LDL uptake was measured using the Synergy H1 fluorescent plate reader (Winooski, VT, USA) (excitation and […]

HMGCoAR [3] = tested on: HMGCoAR; set-up: method as in 5 sources, ref 24 = [24]; PMID 2513368; doi:10.1016/S0022-2275(20)38255-9; 24. Mosley S.T. Kalinowski S.S. Schafer B.L. Tanaka R.D. Tissue-selective acute effects of inhibitors of 3-hydroxy-3-methylglutaryl coenzyme A reductase on cholesterol biosynthesis in lens J. Lipid Re ||| ref 32 = [32]; PMID 25690031; doi:10.3390/ijms16024150; 32. Soares R.A.M. Mendonça S. De Castro L.Í.A. Menezes A.C.C.C.C. Arêas J.A.G. Major Peptides from Amaranth (Amaranthus cruentus) Protein Inhibit HMG-CoA Reductase Activity Int. J. Mol. Sci. 2015 16 4 ||| ref 33 = [33]; doi:10.1016/j.jff.2015.02.021; 33. Lammi C. Zanoni C. Arnoldi A. […], […], and LPYP, three peptides from soy glycinin, modulate cholesterol metabolism in HepG2 cells through the activation of the LDLR-SREBP2 pathway J. Fu ||| ref 34 = [34]; PMID 26310992; doi:10.1021/acs.jafc.5b03497; 34. Lammi C. Zanoni C. Arnoldi A. Vistoli G. Two Peptides from Soy β-Conglycinin Induce a Hypocholesterolemic Effect in HepG2 Cells by a Statin-Like Mechanism: Comparative in Vitro and in Silico Model ||| ref 11, 12 = [11]; PMID 29096438; doi:10.1021/acs.jafc.7b03590; 11. Aiello G. Lammi C. Boschin G. Zanoni C. Arnoldi A. Exploration of Potentially Bioactive Peptides Generated from the Enzymatic Hydrolysis of Hempseed Proteins J. Agric. Food Chem. 2017 65 10174 101 || [12]; PMID 28931275; doi:10.1021/acs.jafc.7b02742; 12. Zanoni C. Aiello G. Arnoldi A. Lammi C. Hempseed Peptides Exert Hypocholesterolemic Effects with a Statin-Like Mechanism J. Agric. Food Chem. 2017 65 8829 8838 10.1021/acs.jafc.7b02742 28931275; details: cited from earlier work
Excerpt: Th ... || CVD is a multifactorial pathology in which oxidative and inflammatory status as well as hypercholesterolemia are among the main risk factors.

HNF1-α = experiment: Western blot, HNF1-α in HepG2 cells; assay type: cell-based, human; details: pravastatin 1.0 µM, 24 h, versus control; p < 0.0001; mean ± S.D., three experiments in duplicate
Protocol: as §1, §2, §3, §4, §5, §6, §7

HMGCoAR [4] = experiment: Western blot, HMGCoAR protein in HepG2 cells; assay type: cell-based, human; details: pravastatin 1.0 µM, 24 h, versus control; p < 0.01; mean ± S.D., three independent experiments in duplicate
Protocol: as §1, §2, §3, §4, §5, §6, §7

LDLR [5] = experiment: Western blot, total LDLR in HepG2 cells; assay type: cell-based, human; details: pravastatin 1.0 µM, 24 h, versus control; p < 0.001; mean ± S.D., three independent experiments in duplicate
Protocol: as §1, §2, §3, §4, §5, §6, §7

p-HMGCoAR = experiment: Western blot, p-HMGCoAR (serine 872) in HepG2 cells; assay type: cell-based, human; details: pravastatin 1.0 µM, 24 h, versus control; p < 0.01; mean ± S.D., three independent experiments in duplicate
Protocol: as §1, §2, §3, §4, §5, §6, §7

PCSK9 [6] = experiment: ELISA, mature PCSK9 secreted by HepG2 cells; assay type: cell-based, human
SREBP-2 = experiment: Western blot, mature and precursor SREBP-2 in HepG2 cells; assay type: cell-based, human; details: pravastatin 1.0 µM, 24 h, versus untreated
Protocol: as §1, §2, §3
µM of H3 for 24 h. After each treatment, the supernatants were collected and stored at -20 °C; cells were scraped in 40 µL ice-cold lysis buffer (RIPA buffer + inhibitor cocktail + 1:100 PMSF + 1:100 Na-orthovanadate + 1:1000 β-mercaptoethanol) and transferred in ice-cold microcentrifuge tubes. After centrifugation at 13,300 g for 15 min at 4 °C, the supernatants were recovered and transferred into new ice-cold tubes. For the mature SREBP-2 nuclear […]
for at 37 °C under 5% CO2 atmosphere for 24h. Therefore, cells were collected with PBS ice-cold and centrifuged 1500 rmp for 5 min at 4°C. The pellet was incubated with 20 µL of Nuclei Isolation Buffer A (10 mM HEPES pH 7.9, 1.5 mM MgCl2, 10 mM KCl, 0.2 mM EDTA, 0.1% β-mercaptoethanol, 0.5 mM PMSF, 0.1 % NP-40, one cOmplete™ Mini, EDTA-free Protease Inhibitor Cocktail) on ice for 10 min and then centrifuged 12000 rpm for 10 min at 4°C. Subsequently, the pellet was incubated with 20 µL of Nuclei Isolation Buffer B (20 mM HEPES […]
0.5 mM PMSF, 0.42 M NaCl, one cOmplete™ Mini, EDTA-free Protease Inhibitor Cocktail) on ice for 20 min and then centrifuged 12000 rpm for 10 min at 4°C and the supernatant was collected (nucleus isolate). Total proteins were quantified […]
as §7, with “anti-β-actin. Secondary antibodies conjugated with HRP and a chemiluminescent reagent were used to visualize target proteins and their signal was quantified using the Image Lab Software (Biorad, Hercules,” for “anti-β-actin.”

PCSK9 [7] = experiment: Western blot, intracellular PCSK9 in HepG2 cells; assay type: cell-based, human; details: pravastatin 1.0 µM, 24 h, versus control; p < 0.0001; mean ± S.D., three experiments in duplicate
Protocol: as §1, §2, §3, §4, §5, §6, §7

AMPK [8] = details: cited from earlier work
Excerpt: Furthermore, it is also known that statins are able to activate AMPK [44] with the consequence of a synergistic inhibition of HMGCoAR activity, its direct target. In agreement with these evidences, our results provide a clear indication that, similarly to statins, peptide H3 increases the phosphorylation level of AMPK at the Thr172 residue of the catalytic subunit, which in turn produces an inhibition of ...

[9] = from soybean glycinin hydrolysis with pepsin, read-out: IC50, HMGCoAR (soybean glycinin peptides)
[10] = LTFPGSAED from lupin protein, VGVL from amaranth protein, hydrolysis with pepsin, read-out: IC50, HMGCoAR (literature peptides)
[11] = from soybean β-conglycinin, read-out: IC50, HMGCoAR (soybean β-conglycinin peptides)

CC[C@H](C)C(=O)O[C@H]1C[C@H](O)C=C2C=C[C@H](C)[C@H](CC[C@@H](O)C[C@@H](O)CC(=O)O)[C@H]21 [pravastatin]
LDLR protein level on cellular membrane (LDLR [1]): 127.3 ± 14.31%
AMPK phosphorylation (threonine 172) (AMPK [2]): 122.7 ± 5.23%
LDL uptake (HepG2 cells): 226.9 ± 11.05%
IC50 (HMGCoAR [3]; read-out: IC50, HMGCoAR (literature value for pravastatin)): 0.47 µM
HNF1-α level (activation up to) (HNF1-α): 116.9 ± 3.21%
HMGCoAR protein level (HMGCoAR [4]): 129.3 ± 9.33%
total LDLR protein level (LDLR [5]): 140.8 ± 15.35%
phosphorylation level of HMGCoAR (serine 872) (p-HMGCoAR): 143.5 ± 4.64%
release of PCSK9 (increase up to) (PCSK9 [6]): 119.6 ± 1.18%
precursor SREBP-2 (125 KDa) protein level (SREBP-2; cytoplasmic fraction, p < 0.05, Figure S2): 140.8 ± 9.0%
mature nuclear SREBP-2 (65 KDa) protein level (SREBP-2; nuclear fraction, p < 0.0001, mean ± S.D., three independent experiments in duplicate): 152.3 ± 8.2%
total mature SREBP-2 (65 KDa) protein level (SREBP-2; total lysate, p < 0.001, mean ± S.D., three independent experiments in duplicate): 134.9 ± 17.3%
PCSK9 protein level (increase up to) (PCSK9 [7]): 118.8 ± 6.11%

IAVPGEVA [peptide from soybean glycinin hydrolysis with pepsin]
IC50 (HMGCoAR [3]; [9]): 222 µM
mechanism of HMGCoAR inhibition (AMPK phosphorylation) (AMPK [8]; soybean peptides): share the same mechanism of HMGCoAR inhibition

IAVPTGVA [peptide from soybean glycinin hydrolysis with pepsin]
IC50 (HMGCoAR [3]; [9]): 247 µM
mechanism of HMGCoAR inhibition (AMPK phosphorylation) (AMPK [8]; soybean peptides): share the same mechanism of HMGCoAR inhibition

LILPKHSDAD [peptide from lupin protein hydrolysis with pepsin]
mechanism of HMGCoAR inhibition (AMPK phosphorylation) (AMPK [8]; lupin peptides): share the same mechanism of HMGCoAR inhibition

LPYP [peptide from soybean glycinin hydrolysis with pepsin]
IC50 (HMGCoAR [3]; [9]): 300 µM
mechanism of HMGCoAR inhibition (AMPK phosphorylation) (AMPK [8]; soybean peptides): share the same mechanism of HMGCoAR inhibition

LTFPGSAED [peptide from lupin protein hydrolysis with pepsin]
IC50 (HMGCoAR [3]; [10]): 68.4 µM
mechanism of HMGCoAR inhibition (AMPK phosphorylation) (AMPK [8]; lupin peptides): share the same mechanism of HMGCoAR inhibition

VGVL [peptide from amaranth protein hydrolysis with pepsin]
IC50 (HMGCoAR [3]; [10]): 50 µM

YVVNPDNDEN [peptide from soybean β-conglycinin]
IC50 (HMGCoAR [3]; [11]): 150 µM

YVVNPDNNEN [peptide from soybean β-conglycinin]
IC50 (HMGCoAR [3]; [11]): 200 µM
